This note sets out measurements from ChEMBL document CHEMBL1140285, “Synthesis and ocular effects of imidazole nitrolic acids” (2005).

The structures appear in SMILES notation. Active and inactive are the calls of the source. The rule behind the calls is not given here.

In assay [1] the test system is Sus scrofa. Description: Increase in NOx concentration in porcineiris-ciliary body after administration of compound at the concentrations of 100 uM; control value is 0.36.
The subject of assay [2] is Sus scrofa. Description: Increase in cGMP concentration in porcineiris-ciliary body after administration of compound at the concentrations of 10 uM; control value is 0.46.
Assay [3] concerns Sus scrofa. Description: Increase in cGMP concentration in porcineiris-ciliary body after administration of compound at the concentrations of 100 uM; control value is 0.46.
Assay [4] concerns Sus scrofa. The experiment in a line: Increase in NOx concentration in porcineiris-ciliary body after administration of compound at the concentrations of 10 uM; control value is 0.36.
In assay [5] the test system is Sus scrofa. Description: Increase in nitrite concentration in porcineiris-ciliary body after administration of compound at the concentrations of 100 uM; control value is 0.15.
In assay [6] the test system is Sus scrofa. Description: Increase in nitrite concentration in porcineiris-ciliary body after administration of compound at the concentrations of 10 uM; control value is 0.15.
The subject of assay [7] is Oryctolagus cuniculus. The experiment in a line: Maximal decrease in IOP observed with in 24 hours after intravitreal administration of the compound; NE is no effect on IOP. It is filed as functional, organism-based.
The subject of assay [8] is Oryctolagus cuniculus. The experiment in a line: Maximal decrease in IOP observed with in 24 hours after intravitreal administration of the compound;NE is no effect on IOP. It is filed as functional, organism-based.
Assay [9] concerns Oryctolagus cuniculus. The experiment in a line: Increase in NOx concentration in plasma after intravitreal administration of compound in rabbits; control value is 408.59. It is filed as functional.
The test system of assay [10] is Oryctolagus cuniculus. The experiment in a line: Increase in cGMP concentration in aqueous humor after intravitreal administration of compound in rabbits; control value is 9.17. It is filed as functional, Aqueous humor of eyeball.
The subject of assay [11] is Oryctolagus cuniculus. Description: Increase in NOx concentration in aqueous humor after intravitreal administration of compound in rabbits; control value is 500.86. It is filed as functional, Aqueous humor of eyeball.
The subject of assay [12] is Oryctolagus cuniculus. The experiment in a line: Increase in nitrite concentration in aqueous humor after intravitreal administration of compound in rabbits; control value is 1.32. It is filed as functional, Aqueous humor of eyeball.
Assay [13] concerns Oryctolagus cuniculus. The experiment in a line: Maximal decrease in IOP observed with […] after intravitreal administration of the compound at the concentration of 20 mM. It is filed as functional.
Assay [14] concerns Oryctolagus cuniculus. Description: Increase in nitrite concentration in plasma after intravitreal administration of compound in rabbits; control value is 0.98. It is filed as functional.
Assay [15] has as its system Oryctolagus cuniculus. Description: Increase in cGMP concentration in aqueous humor after intravitreal administration of compound in rabbits; control value is 14.31. It is filed as functional, Aqueous humor of eyeball.
Assay [16] concerns Oryctolagus cuniculus. The experiment in a line: Increase in NOx concentration in aqueous humor after intravitreal administration of compound in rabbits; control value is 450.31. It is filed as functional, Aqueous humor of eyeball.
Assay [17] concerns Oryctolagus cuniculus. The experiment in a line: Increase in NOx concentration in porcineiris-ciliary body after administration of compound at the concentrations of 10 uM and 100 uM; control value is 0.36. It is filed as functional.
Assay [18] relates to Oryctolagus cuniculus. Description: Increase in nitrite concentration in aqueous humor after intravitreal administration of compound in rabbits; control value is 2.40. It is filed as functional, Aqueous humor of eyeball.
The subject of assay [19] is Oryctolagus cuniculus. Description: Maximal decrease in IOP observed with in 24 hours after intravitreal administration of the compound at the concentration of 20 mM. It is filed as functional.
Assay [20] relates to Oryctolagus cuniculus. The experiment in a line: Increase in nitrite concentration in aqueous humor after topical administration of compound in rabbits; control value is 1.31. It is filed as functional, Aqueous humor of eyeball.
The test system of assay [21] is Oryctolagus cuniculus. Description: Increase in nitrite concentration in plasma after topical administration of compound in rabbits; control value is 0.98. It is filed as functional.
Assay [22] concerns Oryctolagus cuniculus. Description: Increase in NOx concentration in plasma after topical administration of compound in rabbits; control value is 408.59. It is filed as functional.
The test system of assay [23] is Oryctolagus cuniculus. The experiment in a line: Increase in cGMP concentration in aqueous humor after topical administration of compound in rabbits; control value is 16.10. It is filed as functional, Aqueous humor of eyeball.
Assay [24] has as its system Oryctolagus cuniculus. The experiment in a line: Increase in NOx concentration in aqueous humor after topical administration of compound in rabbits; control value is 309.09. It is filed as functional, Aqueous humor of eyeball.
Assay [25] relates to Oryctolagus cuniculus. The experiment in a line: Increase in nitrite concentration in porcineiris-ciliary body after administration of compound at the concentrations of 10 uM and 100 uM; control value is 0.15; NE is no effect on IOP. It is filed as functional.
In assay [26] the test system is Oryctolagus cuniculus. The experiment in a line: Increase in NOx concentration in porcineiris-ciliary body after administration of compound at the concentrations of 10 uM and 100 uM; control value is 0.36; NE is no effect on IOP. It is filed as functional.
Assay [27] deals with Oryctolagus cuniculus. The experiment in a line: Increase in NOx concentration in porcineiris-ciliary body after administration of compound at the concentrations of 10 uM and 100 uM; NE is no effect. It is filed as functional.
In assay [28] the test system is Oryctolagus cuniculus. Description: Maximal decrease in IOP observed with in 24 hours after intravitreal administration of the compound; NE is no effect. It is filed as functional, organism-based.

As to `Cn1cncc1/C(=N/O)[N+](=O)[O-]` [listing 1 of 2 here], the Increase in concentration in the assay on Sus scrofa [1] was found to be 29.96 µM; in the assay on Sus scrofa [4] it was 3.38 µM; in the assay with Sus scrofa [5], 32.07 µM; in the assay with Sus scrofa [6] it was 3.46 µM. Further, the cGMP concentration in the assay with Sus scrofa [2] was 0.87 pmol/mg prot; in the assay on Sus scrofa [3] it was 1.19 pmol/mg prot.
For `O=[N+]([O-])/C(=N\O)c1c[nH]c(-c2ccccc2)n1`, in the assay on Oryctolagus cuniculus [7], the “Maximal decrease in IOP” value is “No effect”.
As to `Cc1[nH]cnc1/C(=N/O)[N+](=O)[O-]`, the Increase in concentration in the assay with Sus scrofa [1] was found to be 30.62 µM; with Sus scrofa [4] it was 3.06 µM; in the assay with Sus scrofa [5], 31.22 µM; in the assay on Sus scrofa [6], 3.62 µM. Further, the cGMP concentration in the assay with Sus scrofa [2] is 0.6 pmol/mg prot; in the assay with Sus scrofa [3] it was 1.22 pmol/mg prot. Moreover, the “Maximal decrease in IOP” value with Oryctolagus cuniculus [8] was “No effect”.
Regarding `Cn1cncc1/C(=N/O)[N+](=O)[O-].O=[N+]([O-])O`, the Increase in concentration turned out to be 425.49 µM in the assay on Oryctolagus cuniculus [9]; 9.41 pmol/mg prot with Oryctolagus cuniculus [10]; 524.29 µM with Oryctolagus cuniculus [11]; 51.95 µM with Sus scrofa [1]; 10.32 µM with Oryctolagus cuniculus [12]; 4.87 µM in the assay on Sus scrofa [4]. Moreover, the values for the Increase in concentration in the assay with Sus scrofa [5], in the assay on Sus scrofa [6] and in the assay on Oryctolagus cuniculus [14] were 28.05 µM, 2.68 µM and 0.75 µM, respectively. Further, the cGMP concentration with Sus scrofa [2] came to 1.01 pmol/mg prot; with Sus scrofa [3] it was 2.76 pmol/mg prot. The “Maximal decrease in IOP” value in the assay on Oryctolagus cuniculus [13] is on record as -4 mmHg.
As for `Cn1cncc1/C(=N/O)[N+](=O)[O-]` [listing 2 of 2 here], the “Maximal decrease in IOP” value in the assay on Oryctolagus cuniculus [7] is “No effect”.
On to `O=[N+]([O-])/C(=N\O)c1c[nH]cn1`, for which the Increase in concentration was 469.42 µM in the assay with Oryctolagus cuniculus [9]; 21.77 pmol/mg prot in the assay with Oryctolagus cuniculus [15]; 451.94 µM in the assay with Oryctolagus cuniculus [16]; “No effect” in the assay on Oryctolagus cuniculus [17]; 2.49 µM in the assay with Oryctolagus cuniculus [18]; 0.18 µM with Sus scrofa [5]. Also, the values for the Increase in concentration in the assay on Sus scrofa [6] and in the assay with Oryctolagus cuniculus [14] were 0.18 µM and 1.38 µM, respectively. Further, the cGMP concentration in the assay on Sus scrofa [2] came to 0.51 pmol/mg prot; with Sus scrofa [3], 0.55 pmol/mg prot. For the same compound, the “Maximal decrease in IOP” value in the assay with Oryctolagus cuniculus [19] is -7.3 mmHg.
`Cl.O/N=C/c1cncn1Cc1ccccc1`: the Increase in concentration was found to be 2.21 µM in the assay on Sus scrofa [1] and 1.97 µM with Sus scrofa [4]. Besides, the cGMP concentration in the assay with Sus scrofa [2] and in the assay with Sus scrofa [3] was 0.58 pmol/mg prot each time.
`Cn1cncc1C=O`: the Increase in concentration in the assay on Sus scrofa [1] came to 0.09 µM; with Sus scrofa [4], 0.63 µM; in the assay on Sus scrofa [5], 0.62 µM; in the assay with Sus scrofa [6], 0.34 µM. Besides, the values for the cGMP concentration in the assay with Sus scrofa [2] and in the assay on Sus scrofa [3] were 0.38 pmol/mg prot and 0.5 pmol/mg prot, respectively. In addition, the “Maximal decrease in IOP” value in the assay on Oryctolagus cuniculus [7] was “No effect”.
Take `O=[N+]([O-])/C(=N\O)c1cncn1Cc1ccccc1`: the Increase in concentration was 1.61 µM in the assay with Oryctolagus cuniculus [20]; 0.87 µM in the assay with Oryctolagus cuniculus [21]; 24.6 µM in the assay on Sus scrofa [1]; 379.43 µM in the assay with Oryctolagus cuniculus [22]; 16.79 pmol/mg prot with Oryctolagus cuniculus [23]; 2.01 µM in the assay with Sus scrofa [4]. Moreover, the Increase in concentration stood at 302.19 µM in the assay on Oryctolagus cuniculus [24], 24.44 µM with Sus scrofa [5] and 2.15 µM in the assay with Sus scrofa [6]. Moreover, the cGMP concentration with Sus scrofa [2] was found to be 0.46 pmol/mg prot; in the assay on Sus scrofa [3], 3.29 pmol/mg prot. Further, the “Maximal decrease in IOP” value in the assay on Oryctolagus cuniculus [7] is “No effect”.
As to `Cn1cncc1/C=N/O`, the Increase in concentration result in the assay with Oryctolagus cuniculus [25] and with Oryctolagus cuniculus [26] was “No effect” throughout. The cGMP concentration was 0.51 pmol/mg prot in the assay with Sus scrofa [2] and 0.58 pmol/mg prot with Sus scrofa [3]. Further, in the assay on Oryctolagus cuniculus [7], the “Maximal decrease in IOP” value is “No effect”.
Turning to `O/N=C/c1cncn1Cc1ccccc1` [listing 1 of 2 here], the cGMP concentration in the assay with Sus scrofa [2] was 0.3 pmol/mg prot.
Turning to `O/N=C/c1cncn1Cc1ccccc1` [listing 2 of 2 here], the Increase in concentration result in the assay on Oryctolagus cuniculus [25] and in the assay on Oryctolagus cuniculus [26] was “No effect” each time. In addition, the “Maximal decrease in IOP” value with Oryctolagus cuniculus [7] was “No effect”.
For `O=Cc1cncn1Cc1ccccc1`, the Increase in concentration entry in the assay with Oryctolagus cuniculus [25] and in the assay with Oryctolagus cuniculus [26] was “No effect” throughout. The cGMP concentration in the assay with Sus scrofa [2] was determined as 0.3 pmol/mg prot; in the assay on Sus scrofa [3], 0.38 pmol/mg prot. For the same compound, in the assay with Oryctolagus cuniculus [7], the “Maximal decrease in IOP” value is “No effect”.
On to `O=[N+]([O-])/C(=N\O)c1ncc[nH]1`, for which the Increase in concentration result with Oryctolagus cuniculus [27] is “inactive”. Besides, the “Maximal decrease in IOP” value in the assay on Oryctolagus cuniculus [28] was “inactive”.
